Here are results for two molecules from US12521393B2, “Cytotoxicity targeting chimeras for CCR2-expressing cells” (GLAXOSMITHKLINE INTELLECTUAL PROPERTY DEVELOPMENT LIMITED, priority 2021, dated 2026).

Values joined by “and” are separate entries in the source; they are usually repeats but may differ in a detail not shown here. Equal entries are not always repeated.

The subject of data set [1] is anti-cotinine antibody (SEQ ID NO: 11/12, rabbit version). The data set is described as follows: SPR binding of anti-cotinine antibody to ARM compounds, Biacore 8k, 25° C., rabbit antibody (Example 202). An excerpt: (§1) Anti-cotinine antibodies having a heavy chain sequence of SEQ ID NO: 9 and a light chain sequence of SEQ ID NO: 10 (humanized version) or a heavy chain sequence of SEQ ID NO: 11 and a light chain sequence of SEQ ID NO: 12 (rabbit version) were captured via the Fc domain to a protein A or A/G surface on flow cell 2 of a CMS sensor chip using the Biacore 8k.
(§2) After antibody capture, a 1500 second wait step was included to reduce drift in the binding step. ARM compounds of Formula (I) were then flowed over the captured antibodies at varying top concentrations ranging from 250 nM to 4 μM (see Table 6 below for top concentration values). The top concentration was diluted 4-fold over 5 dilutions (with a 0 nM compound cycle included to blank subtract the data). Association and dissociation times of the ARMs compounds of Formula (I) varied between experiments as follows and indicated in Table 6 below: reference 1-association for 600 seconds and dissociation for 1200 seconds at 20 μl/min; reference 2-association for 240 seconds and dissociation for 300 seconds at 30 μl/min; reference 3-association for 360 seconds and dissociation for 600 seconds at 30 μl/min. Anti-cotinine antibody bound to the protein A or A/G surface was regenerated using 50 mM NaOH. Experiments were run at 25° C. at pH 7.4 using HBS-EP+ buffer using Biacore 8K control software and evaluated using Biacore Insight Evaluation software. Curves were fit with the 1:1 kinetic fit inherent to the software, utilising a local Rmax and local drift setting.
(§3) Anti-cotinine antibody was tested for binding to ARMs compounds of Formula (I) of the invention in the above assay in or more experimental runs and the results are shown in Table 6 below. Affinity is reported as a pKd value. The pKd value is the negative log of the Kd value, wherein the Kd value is the dissociation constant measured in molar (M) as noted above. For compounds tested in more than one experimental run, the pKd value is reported as an average.
A general note: Surface plasmon resonance follows binding to a sensor surface in real time, without labels.

Data set [2] has as its target anti-cotinine antibody (SEQ ID NO: 9/10, humanized version). Briefly: SPR binding of anti-cotinine antibody to ARM compounds, Biacore 8k, 25° C., humanized antibody (Example 202).
Description: as §1, §2, §3

The subject of a further data set is CCR2+ expressing cells. The data set is described as follows: Alternative dosing strategy (Example 206): percent depletion of CCR2+ expressing cells by flow cytometry. It is filed as in vivo. The note with it: co-dosed vs sequentially dosed intravenously with anti-cotinine antibody. On the technique in general: In flow cytometry, cells or beads pass a laser one at a time.

A short description of data set [3]: Alternative dosing strategy (Example 206): blood concentration of small molecule ARM compound. The note with it: co-dosed vs sequentially dosed intravenously with anti-cotinine antibody. The class given is in vivo. An excerpt: FIG. 5: Alternative dosing strategy of small molecule ARM compound to anti-cotinine antibody, as described in Example 206, with anti-cotinine antibody administered intravenously and ARM compound (Example 1) administered subcutaneously following a 2-hour delay from antibody dosing at various molar ratios of small molecule ARM: antibody; data shown is blood concentration of small molecule ARM compound at various timepoints following administration.

The mark [4] stands for this setting: time reference 3 (association 360 s, dissociation 600 s, 30 μl/min).

In general, pKd refers to the negative decadic logarithm of the Kd, by convention in mol/L. Higher therefore signals a small Kd. In the case of `CC(C)N(C)[C@@H]1CC[C@H](N2CC[C@H](Nc3ncnc4ccc(C(F)(F)F)cc34)C2=O)[C@H](NC(=O)[C@H]2CC[C@H](NC(=O)CCCO[C@H]3CC[C@H](OCCNC(=O)[C@H]4CC(=O)N(C)[C@@H]4c4cccnc4)CC3)CC2)C1` [Example 1, (2S,3S)-N-(2-(((1R,4S)-4-(4-(((1R,4R)-4-(((1R,2S,5R)-5-(Isopropyl(methyl)amino)-2-((S)-2-oxo-3-((6-(trifluoromethyl)quinazolin-4-yl)amino)pyrrolidin-1-yl)cyclohexyl)carbamoyl)cyclohexyl)amino)-4-oxobutoxy)cyclohexyl)oxy)ethyl)-1-methyl-5-oxo-2-(pyridin-3-yl)pyrrolidine-3-carboxamide], in data set [1] (setting [4]), the ka was 5.57e+06 M⁻¹ s⁻¹, the kd stood at 0.000156 s⁻¹ and the negative-log Kd (pKd) was 10.55. Moreover, the kd in data set [2] (time reference 1 (association 600 s, dissociation 1200 s, 20 μl/min)) is 0.000456 s⁻¹ and 0.000649 s⁻¹. Further, in data set [2] (setting [4]), the ka worked out at 1.64e+06 M⁻¹ s⁻¹, the kd came out at 0.000414 s⁻¹ and the pKd was found to be 9.6. Moreover, the “PD (percent depletion of CCR2+ expressing cells)” value with CCR2+ expressing cells is on record as “unchanged”. Moreover, the “PK (blood concentration of small molecule ARM compound)” value in data set [3] is recorded as “unchanged”.
As for `CN1C(=O)C[C@H](C(=O)NCCO[C@H]2CC[C@H](OCCCC(=O)N[C@H]3CC[C@H](C(=O)N[C@@H]4C[C@H](NC(C)(C)C)CC[C@@H]4N4CC[C@H](Nc5ncnc6ccc(C(F)(F)F)cc56)C4=O)CC3)CC2)[C@H]1c1cccnc1` [Example 10, (2S,3S)-N-(2-(((1R,4S)-4-(4-(((1R,4R)-4-(((1R,2S,5R)-5-(tert-Butylamino)-2-((S)-2-oxo-3-((6-(trifluoromethyl)quinazolin-4-yl)amino)pyrrolidin-1-yl)cyclohexyl)carbamoyl)cyclohexyl)amino)-4-oxobutoxy)cyclohexyl)oxy)ethyl)-1-methyl-5-oxo-2-(pyridin-3-yl)pyrrolidine-3-carboxamide], the pKd entry in data set [1] (time reference 2 (association 240 s, dissociation 300 s, 30 μl/min)) was “Poor fit”. Besides, the pKd result in data set [1] (setting [4]) is recorded as “kd outside”. In data set [2] (setting [4]), this molecule yielded a ka of 1.42e+06 M⁻¹ s⁻¹, a kd of 0.000484 s⁻¹ and a pKd of 9.47.
